Assay [1] relates to HepG2. In words: Disruption of homeostasis of chloride anions in golgi apparatus of human HepG2 cells assessed as increase in fluorescence intensity of 6-methoxy-1-(2-oxo-2-((4-sulfamoylphenyl)amino)ethyl)quinolin-1-ium Bromide measured after 12 hts by CLSM imaging analysis. Format: functional, cell-based.
In assay [2] the test system is Lipid bilayer. Put plainly: Vesicular anionophoric activity in Bulky nitrobenzene membrane assessed as induction of relative efflux of chloride ions measured up to 100 hrs by using chloride-selective electrode.
Assay [3] deals with Lipid bilayer. In words: Vesicular anionophoric activity in large unilamellar vesicle membrane derived from egg-yolk L-alpha-phosphatidylcholine assessed as induction of relative efflux of chloride ions in presence of lithium (Li+) measured up to 300 seconds by using chloride-selective electrode. The settings on record: time <= 300.0 sec.
The subject of assay [4] is HT-29. Put plainly: Antiproliferative activity against human HT-29 cells by MTT assay. Format: functional, cell-based. For orientation: Tetrazolium assays rely on reduction of a dye to a coloured formazan, in cell work by metabolically active cells.
Assay [5] concerns HepG2. In words: Antiproliferative activity against human HepG2 cells by MTT assay. Format: functional, cell-based.
Assay [6] relates to MCF7. Put plainly: Antiproliferative activity against human MCF7 cells by MTT assay. Format: functional, cell-based.
Assay [7] deals with Lipid bilayer. Put plainly: Vesicular anionophoric activity in large unilamellar vesicle membrane derived from egg-yolk L-alpha-phosphatidylcholine assessed as induction of relative efflux of chloride ions in presence of potassium (K+) measured up to 300 seconds by using chloride-selective electrode. The settings on record: time <= 300.0 sec.
The subject of assay [8] is HCT-8. Put plainly: Antiproliferative activity against human HCT-8 cells by MTT assay. Format: functional, cell-based.
For assay [9], the system named is Lipid bilayer. In words: Vesicular anionophoric activity in large unilamellar vesicle membrane derived from egg-yolk L-alpha-phosphatidylcholine assessed as induction of relative efflux of chloride ions in presence of cesium (Cs+) measured up to 300 seconds by using chloride-selective electrode. The settings on record: time <= 300.0 sec.
The test system of assay [10] is A2780. In words: Antiproliferative activity against human A2780 cells by MTT assay. Format: functional, cell-based.
Assay [11] has as its system Lipid bilayer. In words: Vesicular anionophoric activity in large unilamellar vesicle membrane derived from egg-yolk L-alpha-phosphatidylcholine assessed as induction of relative efflux of chloride ions measured up to 300 seconds by using chloride-selective electrode.
The subject of assay [12] is HepG2. In words: Suppression of Golgi structural and functional protein expression in human HepG2 cells assessed as decrease in GRASP55 protein expression at 20 uM measured after 48 hrs incubation by Western blot analysis. Format: cell-based. (In general: Immunoblotting shows a protein as a band on a membrane.)
Assay [13] relates to HepG2. Put plainly: Suppression of Golgi structural and functional protein expression in human HepG2 cells assessed as decrease in GM130 protein expression at 20 uM measured after 48 hrs incubation by Western blot analysis. Format: cell-based.
For assay [14], the system named is Lipid bilayer. Put plainly: Vesicular anionophoric activity in large unilamellar vesicle membrane derived from egg-yolk L-alpha-phosphatidylcholine assessed as induction of relative efflux of chloride ions in presence of rubidium (Rb+) measured up to 300 seconds by using chloride-selective electrode. The note with it: time <= 300.0 sec.
Assay [15] relates to Lipid bilayer. Put plainly: Vesicular anionophoric activity in large unilamellar vesicle membrane derived from egg-yolk L-alpha-phosphatidylcholine assessed as induction of relative efflux of chloride ions in presence of sodium (Na+) measured up to 300 seconds by using chloride-selective electrode. The note with it: time <= 300.0 sec.

Calls of active or inactive are those of the source. The calls are words filed in the database; no cut-off is given here.

Usually IC50 stands for the concentration at which inhibition is half-maximal.

As for `NS(=O)(=O)c1ccc(NC(=O)CCCCCNc2c(Nc3ccccc3)c(=O)c2=O)cc1`, the EC50 was determined as 31.1 µM in assay [1] and 9.35 mol% in assay [11]. The Activity entry in assay [2] is “Active; Compound Exhibit Anion Transport Activity Most Probably Through Carrier Mechanism”. Also, the outcome in assay [3], in [7], in assay [9], in [12], in assay [13] and in assay [14] was Active. In [15], the result was Active. The IC50 in assay [4] worked out at 29.6 µM; in assay [5] it was 26.7 µM; in assay [6], 28.5 µM; in assay [8], 22.7 µM; in [10], 46.9 µM.

(Values after ChEMBL document CHEMBL6177955, “Design, synthesis and biological evaluation of Golgi-targeting anion transporters as inducers of Golgiphagy and apoptosis in cancer cells” (Eur J Med Chem, 2025).)
